The compounds below were run against JNK3 kinase (Homo sapiens, UniProt P53779) (assay: JNK3 SPA assay (phosphorylation of GST-c-Jun)). Details: 3.33 μM ATP, [γ-33P] ATP, GST-c-Jun substrate, 30 minutes at room temperature.
JNK3 kinase, sequence (P53779 whole entry): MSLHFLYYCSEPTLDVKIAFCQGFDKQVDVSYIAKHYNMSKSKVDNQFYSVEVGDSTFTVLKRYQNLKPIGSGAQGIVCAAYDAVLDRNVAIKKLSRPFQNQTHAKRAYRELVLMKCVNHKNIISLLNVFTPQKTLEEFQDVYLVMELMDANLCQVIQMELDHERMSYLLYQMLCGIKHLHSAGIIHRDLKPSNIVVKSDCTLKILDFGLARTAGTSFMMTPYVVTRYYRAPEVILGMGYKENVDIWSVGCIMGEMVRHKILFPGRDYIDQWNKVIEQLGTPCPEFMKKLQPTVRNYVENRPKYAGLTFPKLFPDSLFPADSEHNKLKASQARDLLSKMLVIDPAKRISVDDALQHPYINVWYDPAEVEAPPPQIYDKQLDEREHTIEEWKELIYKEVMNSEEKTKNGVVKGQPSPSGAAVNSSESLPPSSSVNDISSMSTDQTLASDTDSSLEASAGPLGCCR
Type: biochemical
Description: JNK1, JNK2, JNK3—SPA Assay
• 1. Compound is dissolved in DMSO to a convenient concentration and this is diluted in 10% DMSO to a five times concentrate of the desired starting concentration (frequently 1:100). • 2. 10 μl of 500 mM EDTA is added to alternative wells of the Opti-plate row, which will receive kinase reaction plus DMSO. This creates the negative control. • 3. For the JNK2 and JNK3 assay, compounds are prepared in six 2-fold dilutions with water and each concentration is tested in duplicate. For the JNK1 assay compounds are prepared in four 5-fold dilutions with water which are tested in triplicate. Controls are treated identically. • 4. 20 μl per well of each compound concentration is transferred to an Opti-plate, in duplicate. • 5. 30 μl (JNK2/3 SPA) or 50 μl (JNK1 SPA) of substrate solution (25 mM HEPES pH 7.5, 10 mM magnesium acetate with 3.33 μM ATP (JNK2/3) or 2 μM ATP (JNK1), approximately 7.5 kBq [γ-^33P] ATP, GST-c-Jun, in water) is added to each well. • 6. 50 μl (JNK2/3 SPA) or 30 μl (JNK1 SPA) of kinase solution (JNK in 25 mM HEPES pH 7.5, 10 mM Mg Acetate) is added to each well.
• 7. The plate is incubated for 30 minutes at room temperature. • 8. 100 μl of bead/stop solution is added to each well (5 mg/ml glutathione-PVT-SPA beads, 40 mM ATP in PBS). • 9. Plates are sealed and incubated for 30 minutes at room temperature, centrifuged for 10 minutes at 2500 g and counted. • 10. The IC50 values are calculated as the concentration of the compound being tested at which the phosphorylation of c-Jun is decreased to 50% of the control value.
In the case of `C#Cc1c[nH]c2ncc(-c3ccc(N(C)C)cc3)cc12`, the IC50 is reported as less than 500 nM.
Work on `N#Cc1c[nH]c2ncc(-c3ccccc3F)cc12` yielded an IC50 of less than 500 nM.
In the case of `CCCNC(=O)C#Cc1c[nH]c2ncc(-c3ccccc3Oc3ccccc3)cc12`, the IC50 is reported as less than 500 nM.
`CN(C)c1ccc(-c2cnc3[nH]cc(C#N)c3c2)cc1` gave an IC50 of less than 500 nM.

From patent US7612086B2, “JNK inhibitors” (Eisai R & D Management Co. Ltd., priority 2003, dated 2009)
